Reference: US11459313B2, “Aziridinyl and amino dimeric naphthoquinone compounds and use for acute myeloid leukemia” (University of Maryland, Baltimore, priority 2016, dated 2022)
Like-named read-outs stand apart in the source and are kept apart here.

Tests used:
[1] = tested on: MV4-11 cells; experiment: WST-1 cell proliferation assay, MV4-11; assay type: cell-based, human
Procedure: (§1) Cell lines were seeded into 96-well plates the afternoon prior to treatment. Approximately 18 hours later, bis and mono-aziridine dimeric naphthoquinone compounds were semi-serially diluted in dimethyl sulfoxide (DMSO) and then growth medium, and added to cells. Plates were incubated for 72 hours prior to addition of WST-1 (Promega®). Plates were read after 4 additional hours of incubation at 37° C. using a Bio-Tek Synergy® HT plate reader (Bio-Tek®). Data were analyzed and graphed using GraphPad Prism® Software (Graph Pad®).
(§2) Primary AML cells from patients and cell lines were seeded into 96-well plates the afternoon prior to treatment. Eighteen hours later, amino-dimeric naphthoquinone Compounds 106, 101, and 114 were semi-serially diluted in dimethyl sulfoxide (DMSO) and then growth medium, and added to the cells. In order to quantitate proliferation of metabolically active cells, plates were incubated for 72 hours for cell lines and 48 hours for primary AML cells prior to addition of water-soluble tetrazolium (WST-1) (Clontech®). Plates were read after four additional hours of incubation at 37° C. using a Bio-Tek Synergy® HT plate reader (Bio-Tele®). Data were analyzed and graphed using GraphPad Prism® Software (GraphPad®). IC50 was defined as the concentration that decreases viable cell numbers by 50%. IC50 values were calculated as mean±standard deviation from at least two independent experiments. If availability of primary blasts was limited, the IC50 was obtained from a single experiment.

[2] = tested on: MOLM-14 cells; experiment: WST-1 cell proliferation assay, MOLM-14; assay type: cell-based, human
Procedure: as §1, §2
To investigate antiproliferative activity of amino-dimeric naphthoquinones against AML cells, an MTT-like cell proliferation assay was performed in the AML cell lines using WST-1 (water soluble tetrazolium salts; Promega®). MOLM-14 and AML-D cells, as well as normal hematopoietic bone marrow cells from a healthy donor, were exposed to a range of concentrations of Compound 101. Human leukemia cells were cultured in the presence of the compound for 72 hours (48 hours for primary cells) and WST-1 reagent was then added. The cells then were monitored for cell growth or the number of cells proliferating and the IC50 calculated. The IC50 is the concentration at which 50% of the cells are not proliferating compared to control cells treated with vehicle. See FIG. 2A, FIG. 2B, and FIG. 2C for representative graphs of these IC50 determinations.

[3] = tested on: THP-1 cells; experiment: WST-1 cell proliferation assay, THP-1; assay type: cell-based; details: Homo sapiens
Procedure: as §1, §2

[4] = Homo sapiens, MV4-11, Table 9, cell proliferation, read-out: IC50 (μM) MV411
[5] = Homo sapiens, MOLM-14, Table 9, cell proliferation, read-out: IC50 (μM) MOLM-14
[6] = Homo sapiens, MV4-11, Table 1, cell proliferation, read-out: MV411 IC50
[7] = Homo sapiens, MV4-11, Table 7, cell proliferation, read-out: IC50 (μM) MV411
[8] = Homo sapiens, MOLM-14, Table 1, cell proliferation, read-out: MOLM14 IC50
[9] = Homo sapiens, MOLM-14, Table 7, cell proliferation, read-out: IC50 (μM) MOLM-14
[10] = Homo sapiens, MV4-11, Table 3, cell proliferation, read-out: MV411 IC50
[11] = Homo sapiens, MOLM-14, Table 3, cell proliferation, read-out: MOLM14 IC50
[12] = Table 2, cell proliferation, read-out: MV411 IC50
[13] = Table 2, cell proliferation, read-out: MOLM14 IC50
[14] = Homo sapiens, MV4-11, Table 2, cell proliferation, read-out: MV411 IC50
[15] = Homo sapiens, MOLM-14, Table 2, cell proliferation, read-out: MOLM14 IC50
[16] = Table 1, cell proliferation, read-out: MV411 IC50
[17] = Table 1, cell proliferation, read-out: MOLM14 IC50

CN(CCO)C1=C(C2=C(N(C)CCO)C(=O)c3ccccc3C2=O)C(=O)c2ccccc2C1=O [Compound 118]
IC50 [1, 4]: 5.25 ± 0.3 µM
IC50 [2, 5]: 5.8 ± 0.6 µM

CN(C)C1=C(C2=C(Cl)C(=O)c3ccccc3C2=O)C(=O)c2ccccc2C1=O [Compound 123, 3-chloro-3′-(dimethylamino)-2,2′-binaphthalenyl-1,1′,4,4′-tetrone]
IC50 [1, 6]: 2.4 ± 2 µM
IC50 [1, 7]: 2.4 µM
IC50 [2, 8]: 3 ± 1.42 µM
IC50 [2, 9]: 3 µM

CN(CCO)C1=C(C2=C(N(C)CCO)C(=O)c3ccccc3C2=O)C(=O)c2ccccc2C1=O [Compound 107, 3,3′-bis-[(2-hydroxyethyl)(N-methyl)amino]-2,2′-binaphthalenyl-1,1′,4,4′-tetrone]
IC50 [1, 10]: 5.25 ± 0.35 µM
IC50 [1, 7]: 5 µM
IC50 [2, 11]: 5.85 ± 0.64 µM
IC50 [2, 9]: 6.3 µM

O=C1C(Cl)=C(C2=C(NCCO)C(=O)c3ccccc3C2=O)C(=O)c2ccccc21 [Compound 125, 3-chloro-3′-[(2-hydroxyethyl)amino]-2,2′-binaphthalenyl-1,1′,4,4′-tetrone]
IC50 [1, 6]: 1.2 µM
IC50 [1, 7]: 1.2 µM
IC50 [2, 8]: 2.2 µM
IC50 [2, 9]: 2.2 µM

CC(O)CNC1=C(C2=C(NCC(C)O)C(=O)c3ccccc3C2=O)C(=O)c2ccccc2C1=O (stereo not shown) [Compound 112]
IC50 [1, 10]: 3.94 ± 2.23 µM
IC50 [2, 11]: 1.49 ± 0.46 µM

O=C1C(Cl)=C(C2=C(N3CC3)C(=O)c3ccccc3C2=O)C(=O)c2ccccc21 [Compound 106, 3-(aziridin-1-yl)-3′-chloro-[2,2′-binaphthalene]-1,1′ 4,4′-tetrone]
IC50 ([3]; THP-1, read-out: IC50 THP1 (n)): 7700 ± 1300 nM
IC50 ([3]; THP-1, read-out: IC50 THP-1): 7700 ± 1300 nM
IC50 ([2]; Homo sapiens, MOLM-14, read-out: IC50 MOLM-14): 3.9 ± 1 µM
IC50 ([2]; Homo sapiens, MOLM-14, read-out: IC50 MOLM-14 (n)): 3.9 ± 1 µM

O=C1C(C2=C(N3CCC(O)CC3)C(=O)c3ccccc3C2=O)=C(N2CCC(O)CC2)C(=O)c2ccccc21 [Compound 122, 3,3′-bis-(4-hydroxypiperidinyl)-2,2′-binaphthalenyl-1,1′,4,4′-tetrone]
IC50 [1, 12]: 2.5 µM
IC50 [2, 13]: 4.3 ± 2.12 µM

CN(C)C1=C(C2=C(N(C)C)C(=O)c3ccccc3C2=O)C(=O)c2ccccc2C1=O [Compound 114, 3,3′-bis(dimethylamino)-[2,2′-binaphthalene]-1,1′,4,4′-tetrone]
IC50 ([1]; Homo sapiens, MV4-11, Example 5 text, unit inferred, read-out: IC50 against MV4-11): 2.4 ± 0.3 µM

CN(C)C1=C(C2=C(N(C)C)C(=O)c3ccccc3C2=O)C(=O)c2ccccc2C1=O [Compound 135]
IC50 [1, 4]: 2.2 ± 0.6 µM
IC50 [2, 5]: 2.8 ± 0.9 µM

O=C1C(C2=C(N3CCN(CCO)CC3)C(=O)c3ccccc3C2=O)=C(N2CCN(CCO)CC2)C(=O)c2ccccc21 [Compound 116]
IC50 [1, 4]: 1.65 µM
IC50 [2, 5]: 1.17 µM

O=C1C(Cl)=C(C2=C(N3CCN(CCO)CC3)C(=O)c3ccccc3C2=O)C(=O)c2ccccc21 [Compound 126, 3-chloro-3′-[(4-hydroxyethyl)piperazinyl]-2,2′-binaphthalenyl-1,1′,4,4′-tetrone]
IC50 [1, 6]: 0.76 ± 0.36 µM
IC50 [1, 7]: 0.5 µM
IC50 [2, 8]: 0.85 ± 0.25 µM
IC50 [2, 9]: 0.6 µM

CN(C)CCNC1=C(C2=C(NCCN(C)C)C(=O)c3ccccc3C2=O)C(=O)c2ccccc2C1=O [Compound 103, 3,3′-bis({[2-(dimethylamino)ethyl]amino})-[2,2′-binaphthalene]-1,1′,4,4′-tetrone]
IC50 [1, 14]: 0.49 µM
IC50 [2, 15]: 0.12 µM

3-chloro-3′-(4-hydroxypiperidinyl)-2,2′-binaphthalenyl-1,1′,4,4′-tetrone [Compound 127]
IC50 [1, 16]: 2.1 ± 0.56 µM
IC50 [2, 17]: 3.6 ± 0.63 µM

O=C1C(NCCO)=C(C2=C(NCCO)C(=O)c3ccccc3C2=O)C(=O)c2ccccc21 [Compound 115]
IC50 [1, 4]: 0.2 ± 0.02 µM
IC50 [2, 5]: 0.15 ± 0.01 µM

CC(=O)OCCNC1=C(C2=C(NCCOC(C)=O)C(=O)c3ccccc3C2=O)C(=O)c2ccccc2C1=O [Compound 119]
IC50 [1, 4]: 2.2 ± 0.7 µM
IC50 [2, 5]: 1 µM

3-chloro-3′-hydroxy dimeric naphthoquinone [Compound 144, reference compound]
IC50 [1, 16]: 3 ± 0.07 µM
IC50 ([1]; Table 7, cell proliferation, read-out: IC50 (μM) MV411): 3 µM
IC50 [2, 17]: 6.5 ± 0.28 µM
IC50 ([2]; Table 7, cell proliferation, read-out: IC50 (μM) MOLM-14): 6.3 µM

CN(C)C1=C(C2=C(N(C)C)C(=O)c3ccccc3C2=O)C(=O)c2ccccc2C1=O [Compound 120, 3,3′-bis-(2-dimethylamino)-2,2′-biuaphthalenyl-1,1′,4,4′-tetrone]
IC50 [1, 14]: 2.15 ± 0.64 µM
IC50 [1, 7]: 2.4 µM
IC50 [2, 15]: 2.8 ± 0.91 µM
IC50 [2, 9]: 2.9 µM

O=C1C(Cl)=C(C2=C(Cl)C(=O)c3cc(Br)ccc3C2=O)C(=O)c2ccccc21 [Compound 139]
IC50 [1, 7]: 5 µM
IC50 [2, 9]: 7.1 µM

COCCN(C)C1=C(C2=C(N(C)CCOC)C(=O)c3ccccc3C2=O)C(=O)c2ccccc2C1=O [Compound 108, 3,3′-bis-[(2-methoxyethyl)(N-methyl)amino]-2,2′-binaphthalenyl-1,1′,4,4′-tetrone]
IC50 [1, 10]: 5.5 ± 0.71 µM
IC50 [1, 7]: 6 µM
IC50 [2, 11]: 5.55 ± 0.78 µM
IC50 [2, 9]: 6.1 µM

CN(C)CCN(C)C1=C(C2=C(Cl)C(=O)c3ccccc3C2=O)C(=O)c2ccccc2C1=O [Compound 124, 3-chloro-3′((2-(dimethylamino)ethyl)(methyl)amino)-[2,2′-binaphthalene]-1,1′,4,4′-tetrone]
IC50 [1, 6]: 1.3 ± 1 µM
IC50 [1, 7]: 1.3 µM
IC50 [2, 8]: 2.8 ± 0.01 µM
IC50 [2, 9]: 2.8 µM

O=C1C(C2=C(N3CCC(O)CC3)C(=O)c3ccccc3C2=O)=C(N2CCC(O)CC2)C(=O)c2ccccc21 [Compound 117]
IC50 [1, 4]: 2.5 µM
IC50 [2, 5]: 4.3 ± 2.1 µM

O=C1C(C2=C(N3CCN(CCOCCO)CC3)C(=O)c3ccccc3C2=O)=C(N2CCN(CCOCCO)CC2)C(=O)c2ccccc21 [Compound 110, 3,3′-bis(4-(2-(2-hydroxyethoxy)ethyl)piperazin-1-yl)-[2,2′-binaphthalene]-1,1′,4,4′-tetrone]
IC50 [1, 10]: 140 ± 0.91 µM
IC50 [2, 11]: 1.9 ± 0.32 µM

O=C1C(NCCO)=C(C2=C(NCCO)C(=O)c3cc(F)ccc3C2=O)C(=O)c2ccccc21 [Compound 137]
IC50 [1, 4]: 1.16 ± 0.2 µM
IC50 [2, 5]: 0.37 ± 0.17 µM

O=C1C(NCCO)=C(C2=C(NCCO)C(=O)c3cc(F)ccc3C2=O)C(=O)c2ccccc21 [Compound 105, 3,3′-bis(2-hydroxyethylamino)-6-fluoro-2,2′-binaphthyl-1,1′,4,4′-tetrone]
IC50 [1, 10]: 2.05 ± 0.4 µM
IC50 [2, 11]: 1.3 ± 0.23 µM

O=C1C(C2=C(N3CCN(CCO)CC3)C(=O)c3ccccc3C2=O)=C(N2CCN(CCO)CC2)C(=O)c2ccccc21 [Compound 121, 3,3′-bis[4-(2-hydroxyethyl)piperazin-1-yl]-4a,5a-dihydro-[2,2′-binaphthalene]-1,1′,4,4′-tetrone]
IC50 [1, 12]: 1.65 µM
IC50 [2, 13]: 1.17 µM

CC(=O)OCCNC1=C(C2=C(NCCOC(C)=O)C(=O)c3ccccc3C2=O)C(=O)c2ccccc2C1=O [Compound 109, 3,3′bis-[(2-acyloxyethyl)amino]-2,2′-binaphthalenyl-1, -1′,4,4′-tetrone]
IC50 [1, 10]: 2.2 ± 0.74 µM
IC50 [2, 11]: 1 µM

COc1ccc2c(c1)C(=O)C(NCCO)=C(C1=C(NCCO)C(=O)c3ccccc3C1=O)C2=O [Compound 104, 3,3′-bis(2-hydroxyethylamino)-6-methoxy-2,2′-binaphthalenyl-1,1′,4,4′-tetrone]
IC50 [1, 10]: 1.16 ± 0.2 µM
IC50 [1, 4]: 2.05 ± 0.4 µM
IC50 [2, 11]: 0.37 ± 0.17 µM
IC50 [2, 5]: 1.32 ± 0.23 µM
